We go through 15 molecules from patent US5008271A, “DC-88A derivatives” (Kyowa Hakko Kogyo Co., Ltd., priority 1988, dated 1991).

One series relates to dd strain male mice. The experiment in a line: Acute toxicity test (minimum lethal dose). The format is in vivo. The following applies: intraperitoneal, mortality observed for 14 days. On the procedure: Using dd strain male mice weighing 20 ±l g, a test compound was intraperitoneally administered. MLD (the minimum lethal dose) was determined by observing the mortality for 14 days after administration.

In another series the test system is HeLa S3 cells. In words: Growth inhibition test using HeLa S3 cells. The format is cell-based. As for the experimental part: The pharmacological activity of Compound (I), Compound (II) and Compound (III) was determined by growth inhibition test using HeLa S3 cells.
Test on growth inhibition of HeLa S3 cells:
HeLa S3 cells diluted to 3×10^4 cells/ml with MEM medium containing 10% calf fetal serum and 2 mM glutamine were separately distributed by 0.1 ml each in each well of a 96 well microtiter plate.
After culturing at 37° C. overnight in a CO2 incubator, 0.05 ml each of a test sample appropriately diluted with MEM medium was added to each well.
After culturing the cells for 72 hours in the CO2 incubator, the culture supernatant was removed. After washing once with phosphate buffered physiological saline (PBS), 0.1 ml each of MEM medium containing 0.02% neutral red was added to each well and then cultured at 37° C. for an hour in the CO2 -incubator to stain the cells. After removing the culture supernatant, the cells were washed once with physiological saline, and the dye was extracted with 0.001 N HCl/30% ethanol. Absorbance at 550 nm of the extract was measured with a microplate reader. By comparing absorbance of extract of intact cells with that of the cells treated with a test compound in known concentrations IC50, i.e. the concentration which inhibited growth of the cells by 50% was determined.

The test system of a further series is various bacteria. The following applies: against various bacteria; cited from earlier work.
Series [1] concerns lymphocytic leukemia P388. The following applies: lymphocytic leukemia P388, etc.; cited from earlier work.
The mark [2] stands for this setting: Homo sapiens, HeLa S3, 72 h, read-out: IC50 (concentration which inhibited growth of the cells by 50%), HeLa S3 cells, 72 hours, neutral red staining.
Where [3] appears, read: Homo sapiens, HeLa S3 cells, 72 hours, neutral red staining, read-out: IC50 (concentration which inhibited growth of the cells by 50%).

Where two headings read alike, the source gives them in different places.

On to `COC(=O)C1(C)Nc2c(O[Si](C)(C)C(C)(C)C)cc3c(c2C1=O)C(CBr)CN3C(=O)c1cc2cc(OC)c(OC)c(OC)c2[nH]1` (stereo not drawn) [Compound 1], for which the “Acute Toxicity (MLD), minimum lethal dose” value (“Acute Toxicity (MLD)” below) in the series with dd strain male mice was 0.25 mg/kg. Consider `COC(=O)C1(C)Nc2c(O)cc3c(c2C1O)C(CBr)CN3C(=O)c1cc2cc(OC)c(OC)c(OC)c2[nH]1` (stereo not drawn) [Compound 5], for which the “Acute Toxicity (MLD)” value in the series on dd strain male mice is recorded as 0.63 mg/kg. In addition, in the series on HeLa S3 cells (setting [2]), the IC50 amounted to 0.26 nM.

For `COC(=O)C1(C)Nc2c(O)cc3c(c2C1O)C(CBr)CN3C(=O)c1cc2cc(OC)c(OC)c(OC)c2[nH]1` (stereo not drawn) [Compound 6], the “Acute Toxicity (MLD)” value in the series on dd strain male mice is 1.3 mg/kg. Also, in the series on HeLa S3 cells (read-out: IC50 (concentration which inhibited growth of the cells by 50%), HeLa S3 cells, 72 hours, neutral red staining), the IC50 is 0.2 nM.

For `COC(=O)C1(C)Nc2c(OC(C)=O)cc3c(c2C1=O)C(CBr)CN3C(=O)c1cc2cc(OC)c(OC)c(OC)c2[nH]1` (stereo not drawn) [Compound 7], in the series on dd strain male mice, the “Acute Toxicity (MLD)” value came to 0.063 mg/kg. Consider `COC(=O)C1(C)Nc2c(O[Si](C)(C)C(C)(C)C)cc3c(c2C1OC(C)=O)C(CBr)CN3C(=O)c1cc2cc(OC)c(OC)c(OC)c2[nH]1` (stereo not drawn) [Compound 8], for which the “Acute Toxicity (MLD)” value in the series with dd strain male mice is reported as 2.5 mg/kg. Still for that read-out and setting: the figure for `COC(=O)C1(C)Nc2c(OC(=O)N(C)C)cc3c(c2C1=O)C(CBr)CN3C(=O)c1cc2cc(OC)c(OC)c(OC)c2[nH]1` (stereo not drawn) [Compound 13] is 2.5 mg/kg. Regarding `C=CCOC(=O)Oc1cc2c(c3c1NC(C)(C(=O)OC)C3=O)C(CBr)CN2C(=O)c1cc2cc(OC)c(OC)c(OC)c2[nH]1` (stereo not drawn) [Compound 14], the “Acute Toxicity (MLD)” value in the series on dd strain male mice is 0.5 mg/kg. Also, in the series on HeLa S3 cells (setting [2]), the IC50 was found to be 0.14 nM. For `CCCCCCCCCCCC(=O)Oc1cc2c(c3c1NC(C)(C(=O)OC)C3=O)C(CBr)CN2C(=O)c1cc2cc(OC)c(OC)c(OC)c2[nH]1` (stereo not drawn) [Compound 15], in that order: 0.5 mg/kg and 0.042 nM. Turning to `CCOC(=O)C1(C)Nc2c(O)cc3c(c2C1=O)C(CBr)CN3C(=O)c1cc2cc(OC)c(OC)c(OC)c2[nH]1` (stereo not drawn) [Compound 17], the IC50 in the series with HeLa S3 cells (setting [3]) is 0.019 nM. For `C=CCOC(=O)C1(C)Nc2c(O)cc3c(c2C1=O)C(CBr)CN3C(=O)c1cc2cc(OC)c(OC)c(OC)c2[nH]1` (stereo not drawn) [Compound 19], the IC50 in the series with HeLa S3 cells (setting [3]) came to 0.94 nM.

With `COc1cc2cc(C(=O)N3CC(CBr)c4c3cc(O)c3c4C(=O)C(C)(C(=O)OCc4ccccc4)N3)[nH]c2c(OC)c1OC` (stereo not drawn) [Compound 21], the IC50 in the series with HeLa S3 cells (setting [3]) turned out to be 1.9 nM. For `C=CCC1(C)Nc2c(O)cc3c(c2C1=O)C(CBr)CN3C(=O)c1cc2cc(OC)c(OC)c(OC)c2[nH]1` (stereo not drawn) [Compound 25], in the series with HeLa S3 cells (setting [3]), the IC50 turned out to be 0.29 nM. Still for that read-out and setting: the figure for `COc1cc2cc(C(=O)N3CC(CBr)c4c3cc(O)c3c4C(O)C(C)(COC(C)=O)N3)[nH]c2c(OC)c1OC` (stereo not drawn) [Compound 27] is 3.3 nM. As for `COC(=O)C1(C)NC2=C(C1=O)C13CC1CN(C(=O)c1cc4cc(OC)c(OC)c(OC)c4[nH]1)C3=CC2=O` (stereo not drawn) [DC-88A], the IC50 in the series on HeLa S3 cells (setting [2]) was 0.039 nM. For the same molecule, the antibacterial activity result in the series on various bacteria is “exhibits not only an antibacterial activity against various bacteria”. Further, the “antitumor activity against lymphocytic leukemia P388” value in series [1] was “an antitumor activity against lymphocytic leukemia P388, etc”.

Take `COC(=O)C1(C)Nc2c(O)cc3c(c2C1=O)C(CBr)CN3C(=O)c1cc2cc(OC)c(OC)c(OC)c2[nH]1` (stereo not drawn) [DC-89B2, reference compound]: the IC50 in the series with HeLa S3 cells (setting [2]) stood at 0.014 nM.
